Data as given in US10513521B2, “Compositions and methods for inhibiting BMP” (The Brigham and Women's Hospital, Inc., priority 2014, dated 2019).
Several values for one entry are separate records, joined by “and”; a condition that tells them apart may be missing. Identical values can stand only once.

Tests used:
ALK1 = biological target: T1, ALK1 (Bos taurus, UniProt A4FUX2); assay: In-cell Western ALK1 assay (BAOEC cells, BMP9 as agonist); assay type: cell-based, Bovine; settings: read-out: BMP9 ICW
T1 construct: The BAOEC cell line was employed for the measurement of ALK1 activity using BMP9 as the agonist; host or cells: BAOEC (bovine aortic endothelial cells)
T1 sequence (A4FUX2 23-503): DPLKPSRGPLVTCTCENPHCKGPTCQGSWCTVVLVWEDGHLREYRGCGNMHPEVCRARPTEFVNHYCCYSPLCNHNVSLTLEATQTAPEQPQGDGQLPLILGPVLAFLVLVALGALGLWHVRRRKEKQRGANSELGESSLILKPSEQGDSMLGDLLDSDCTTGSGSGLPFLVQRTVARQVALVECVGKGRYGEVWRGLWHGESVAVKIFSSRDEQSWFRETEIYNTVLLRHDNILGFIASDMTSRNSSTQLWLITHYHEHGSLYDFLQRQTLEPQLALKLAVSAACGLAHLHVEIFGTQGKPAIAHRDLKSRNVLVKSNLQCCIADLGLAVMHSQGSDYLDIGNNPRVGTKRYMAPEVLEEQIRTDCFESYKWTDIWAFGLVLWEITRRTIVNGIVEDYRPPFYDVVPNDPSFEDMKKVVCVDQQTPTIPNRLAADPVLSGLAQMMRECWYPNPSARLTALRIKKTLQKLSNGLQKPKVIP
From the text: 3. In-Cell Western ALK1 and ALK2 Assays in 384-Well Plate Format.
We also optimized cell-based In-cell Western assays for measurements of ALK1 and ALK2 activities that were used to determine compound activities in these two kinases. The cell lines and agonists used were same as described in above cell-based HTRF ALK1 and ALK2 assays. The initial cell plating and compound treatment were also same. The main difference is the detection of phosphorylation status of SMAD1. In t-cell Western assay, the cells were fixed and phosphorylation status of SMAD1 was detected by the ELISA instead of using the HTRF assay kit in above assay.
C2C12 cells and RPMI 1640 medium were obtained from ATCC (Manassas, Va.) and Bovine Aortic endothelial Cells (BAOEC) and epithelial defined growth medium were purchased from Genlantis (San Deigo, Calif.). HyClone Fetal Bovine Serum was obtained from GE healthcare life sciences (Logan, Utah). BMP6 and BMP9 were purchased from R&D System (R&D). Anti-P-SMAD 1/5/8 rabbit mAb and anti-rabbit IgG, HRP-Linked antibody were purchased from Cell Signaling Technology (Danvers, Mass.). BioFX Chemiluminescent Ultra-Sensitive HRP Microwell Substrate ECL Reagent was obtained from SurModics (Edina, Minn.). The compound plates and the white solid MB assay plates were from Greiner Bio-one (Monroe, N.C.).
Similarly as described in above HTRF cell-based assay, this assay was performed in 384 well plate format. C2C12 were grown in T225 flasks were sterilely washed with 1×PBS pre-starved with medium containing 0.1% FBS for 20 hours. Pre-starved cells were then plated in 384 well plate in the starvation medium (containing in 0.1% FBS). After 4 hours, compound dilutions in DMSO were added to the assay plate and incubated for 30 minutes. The assay plate was then added with BMP6 for C2C12 cells or BMP9 for BAOEC cells and incubated for 30 minutes.
Cells were fixed with 50 ul ice-cold methanol and incubated for 15 min after removing the supernatant. The methanol was removed and filled with 0.5% glutaraldehyde and incubated at room temperature for 15 min. The cells were washed in the plate washer with PBS and blocked with 2% BSA in PBS for 1 h at room temperature on the rotator. After removing the blocking reagent, the cells were incubated with the anti-p-SMAD1 antibody in 2% BSA in PBS for overnight at 4° C. on rotator. The cells were washed with PBS in the plate washer and incubated with HRP conjugated second antibody in 2% BSA in PBS for 1 hour at room temperature. After a cell wash with PBS, ECL detection reagent was added and the plate was read in the luminesce mode in the ViewLux plate reader.

ALK3 = ALK3 (Homo sapiens, UniProt P36894); assay: TR-FRET enzymatic ALK kinase assay, ALK3
Protocol: (§1) Briefly, the ALKs enzymatic assay was initiated by dispense 2.5 μl enzyme in 1× kinase reaction buffer. The assay plate was then added with compounds followed by incubation at room temperature for 10 minutes. Then 2.5 μl/well substrate was added.

ALK4 = biological target: T2, ALK4 (Homo sapiens, UniProt P36896); assay: TR-FRET enzymatic ALK kinase assay, ALK4
T2 sequence (P36896 24-505): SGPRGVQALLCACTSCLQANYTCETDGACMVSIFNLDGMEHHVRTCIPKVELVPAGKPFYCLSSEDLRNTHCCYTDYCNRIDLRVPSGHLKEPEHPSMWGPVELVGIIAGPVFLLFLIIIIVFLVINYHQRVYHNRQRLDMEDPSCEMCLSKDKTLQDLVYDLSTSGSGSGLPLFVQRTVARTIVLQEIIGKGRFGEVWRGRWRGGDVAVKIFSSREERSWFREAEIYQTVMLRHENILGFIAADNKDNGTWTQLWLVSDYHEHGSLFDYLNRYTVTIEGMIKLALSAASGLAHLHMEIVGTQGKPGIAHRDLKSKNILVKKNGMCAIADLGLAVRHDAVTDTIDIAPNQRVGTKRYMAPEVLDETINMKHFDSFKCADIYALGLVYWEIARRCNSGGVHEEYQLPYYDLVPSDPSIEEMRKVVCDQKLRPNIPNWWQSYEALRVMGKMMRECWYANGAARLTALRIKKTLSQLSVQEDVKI
Protocol: as §1

ALK5 = biological target: T3, ALK5 (Homo sapiens, UniProt P36897); assay: TR-FRET enzymatic ALK kinase assay, ALK5
T3 sequence (P36897 34-503): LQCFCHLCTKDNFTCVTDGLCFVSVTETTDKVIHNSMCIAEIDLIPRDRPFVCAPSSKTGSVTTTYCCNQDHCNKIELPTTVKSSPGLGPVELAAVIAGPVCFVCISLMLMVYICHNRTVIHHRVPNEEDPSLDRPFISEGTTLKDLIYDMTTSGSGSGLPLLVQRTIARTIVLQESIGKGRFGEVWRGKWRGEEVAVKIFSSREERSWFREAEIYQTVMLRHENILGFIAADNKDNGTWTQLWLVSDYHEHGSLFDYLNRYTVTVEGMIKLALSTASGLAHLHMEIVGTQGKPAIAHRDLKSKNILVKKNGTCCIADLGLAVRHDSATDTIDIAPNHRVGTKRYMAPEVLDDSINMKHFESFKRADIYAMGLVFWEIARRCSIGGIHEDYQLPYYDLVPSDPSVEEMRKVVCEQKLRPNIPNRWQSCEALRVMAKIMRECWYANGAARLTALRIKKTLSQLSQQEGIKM
Protocol: Six ALK kinase enzyme assays were developed for determination of compound activities on ALK1, ALK2, ALK3, ALK4, ALK5 and ALK6.
as §1

ALK6 = ALK6 (Homo sapiens, UniProt O00238); assay: TR-FRET enzymatic ALK kinase assay, ALK6
Chain of ALK6 (O00238 14-502): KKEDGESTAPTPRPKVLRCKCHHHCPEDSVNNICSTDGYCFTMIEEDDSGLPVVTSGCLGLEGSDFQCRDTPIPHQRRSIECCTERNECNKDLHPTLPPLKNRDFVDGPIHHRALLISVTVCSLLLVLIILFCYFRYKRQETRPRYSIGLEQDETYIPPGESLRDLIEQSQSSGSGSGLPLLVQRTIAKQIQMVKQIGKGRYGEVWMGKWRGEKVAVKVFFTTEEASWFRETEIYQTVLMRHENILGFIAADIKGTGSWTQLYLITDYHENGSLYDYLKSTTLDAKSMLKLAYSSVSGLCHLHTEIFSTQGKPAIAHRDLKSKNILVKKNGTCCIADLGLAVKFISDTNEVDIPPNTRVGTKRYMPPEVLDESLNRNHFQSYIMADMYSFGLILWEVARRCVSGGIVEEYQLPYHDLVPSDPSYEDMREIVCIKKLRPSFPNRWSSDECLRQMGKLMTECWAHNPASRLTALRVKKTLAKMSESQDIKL
Protocol: as §1

Chain of ALK3 (P36894 24-532): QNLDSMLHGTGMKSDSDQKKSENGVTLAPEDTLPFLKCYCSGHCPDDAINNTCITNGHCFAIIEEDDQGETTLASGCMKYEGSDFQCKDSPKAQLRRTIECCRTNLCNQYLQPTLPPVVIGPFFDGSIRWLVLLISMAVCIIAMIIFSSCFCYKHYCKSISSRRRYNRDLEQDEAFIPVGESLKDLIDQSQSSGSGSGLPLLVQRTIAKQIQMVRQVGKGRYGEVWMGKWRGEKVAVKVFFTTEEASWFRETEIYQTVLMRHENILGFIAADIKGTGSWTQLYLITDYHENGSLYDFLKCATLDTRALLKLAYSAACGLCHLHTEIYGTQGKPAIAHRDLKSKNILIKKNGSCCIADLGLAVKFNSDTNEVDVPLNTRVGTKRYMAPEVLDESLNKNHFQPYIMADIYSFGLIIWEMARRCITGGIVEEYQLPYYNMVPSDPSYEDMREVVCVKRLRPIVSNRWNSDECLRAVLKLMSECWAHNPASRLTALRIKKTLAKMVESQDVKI

Row | IC50 (ALK1) | IC50 (ALK3) | IC50 (ALK4) | IC50 (ALK5) | IC50 (ALK6) | Compound
1 | 1.4 µM and 0.56 µM and 1 µM and 0.76 µM and 1.5 µM and 0.31 µM and 0.83 µM | 0.31 µM | 4.2 µM | > 10 µM | 4.3 µM | C[C@@H]1CNC[C@H](C)N1c1ccc(-c2cnc3c(-c4cccc(C(C)(C)O)c4)cnn3c2)cc1 [Compound 103, 2-(3-(6-(4-((2R,6S)-2,6-dimethylpiperazin-1-yl)phenyl)pyrazolo[1,5-a]pyrimidin-3-yl)phenyl)propan-2-ol]
2 | 1.4 µM and 2.3 µM and 1.2 µM | > 10 µM | > 10 µM | > 10 µM | > 10 µM | C[S+](=O)([O-])c1cccc(-c2cnn3cc(-c4ccc(OC5(Cn6ccnc6)COC5)cc4)cnc23)c1 [Compound 105, 6-(4-((3-((1H-imidazol-1-yl)methyl)oxetan-3-yl)oxy)phenyl)-3-(3-(methylsulfonyl)phenyl)pyrazolo[1,5-a]pyrimidine]
3 | 1.8 µM | 0.97 µM | 6.5 µM | > 10 µM | > 10 µM | C[C@@H]1CNC[C@H](C)N1c1ccc(-c2cnc3c(-c4cccc([S+](=O)([O-])C5CC5)c4)cnn3c2)cc1 [Compound 111, 3-(3-(cyclopropylsulfonyl)phenyl)-6-(4-((2R,6S)-2,6-dimethylpiperazin-1-yl)phenyl)pyrazolo[1,5-a]pyrimidine]

Row | Compound | IC50 (ALK1) | IC50 (ALK3) | IC50 (ALK4) | IC50 (ALK5) | IC50 (ALK6)
4 | C[C@@H]1CNC[C@H](C)N1c1ccc(-c2cnc3c(-c4cccc(S(C)(=O)=O)c4)cnn3c2)cc1 [Compound 82, 6-(4-((2R,6S)-2,6-dimethylpiperazin-1-yl)phenyl)-3-(3-(methylsulfonyl)phenyl)pyrazolo[1,5-a]pyrimidine] | 1.5 µM (2×) and 1 µM and 1.3 µM and 1.8 µM and 360 nM and 960 nM and 2 µM | 0.54 µM | 3.2 µM | > 10 µM | 7.9 µM
